# From paper PMC10905675, “INX-315, a Selective CDK2 Inhibitor, Induces Cell Cycle Arrest and Senescence in Solid Tumors” (Cancer Discovery, 2023)
# Experiments:
# Assay in all cases: SelectScreen ZLYTE
# Type in all cases: biochemical
# Settings in all cases: INX-0315 at 100nM
# ABL1 G250E = molecular target: T1, ABL1 G250E (Homo sapiens, UniProt P00519, G250E)
# T1 construct: purchased Thermo Fisher Scientific SelectScreen (plus Nanosyn / Reaction Biology for CDK/cyclin lines)
# In short: (§1)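 A single-dose pass at 100 nmol/L INX-315 in 1% DMSO came first. Curves of 10 points from 1 µmol/L to 0.0495 nmol/L followed, using standard predetermined assay settings.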
# ACVR1B (ALK4) = molecular target: T2, ACVR1B (ALK4) (Homo sapiens, UniProt P36896)
# T2 construct: purchased Thermo Fisher Scientific SelectScreen (plus Nanosyn / Reaction Biology for CDK/cyclin lines)
# In short: as §1
# AKT1 (PKB alpha) = molecular target: T3, AKT1 (PKB alpha) (Homo sapiens, UniProt P31749)
# T3 construct: purchased Thermo Fisher Scientific SelectScreen (plus Nanosyn / Reaction Biology for CDK/cyclin lines)
# In short: as §1
# ALK = molecular target: T4, ALK (Homo sapiens, UniProt Q9UM73)
# T4 construct: purchased Thermo Fisher Scientific SelectScreen (plus Nanosyn / Reaction Biology for CDK/cyclin lines)
# In short: as §1
# AMPK (A1/B2/G2) = molecular target: T5, AMPK (A1/B2/G2) (Homo sapiens, UniProt Q13131)
# T5 construct: purchased Thermo Fisher Scientific SelectScreen (plus Nanosyn / Reaction Biology for CDK/cyclin lines)
# In short: as §1
# AURKB (Aurora B) = molecular target: T6, AURKB (Aurora B) (Homo sapiens, UniProt Q96GD4)
# T6 construct: purchased Thermo Fisher Scientific SelectScreen (plus Nanosyn / Reaction Biology for CDK/cyclin lines)
# In short: as §1
# CAMK2A (CaMKII alpha) = molecular target: T7, CAMK2A (CaMKII alpha) (Homo sapiens, UniProt Q9UQM7)
# T7 construct: purchased Thermo Fisher Scientific SelectScreen (plus Nanosyn / Reaction Biology for CDK/cyclin lines)
# In short: as §1
# CSNK1D (CK1 delta) = molecular target: T8, CSNK1D (CK1 delta) (Homo sapiens, UniProt P48730)
# T8 construct: purchased Thermo Fisher Scientific SelectScreen (plus Nanosyn / Reaction Biology for CDK/cyclin lines)
# In short: as §1
# CSNK1G1 (CK1 gamma 1) = molecular target: T9, CSNK1G1 (CK1 gamma 1) (Homo sapiens, UniProt Q9HCP0)
# T9 construct: purchased Thermo Fisher Scientific SelectScreen (plus Nanosyn / Reaction Biology for CDK/cyclin lines)
# In short: as §1
# DCAMKL2 (DCK2) = molecular target: T10, DCAMKL2 (DCK2) (Homo sapiens, UniProt Q8N568)
# T10 construct: purchased Thermo Fisher Scientific SelectScreen (plus Nanosyn / Reaction Biology for CDK/cyclin lines)
# In short: as §1
# DYRK3 = molecular target: T11, DYRK3 (Homo sapiens, UniProt O43781)
# T11 construct: purchased Thermo Fisher Scientific SelectScreen (plus Nanosyn / Reaction Biology for CDK/cyclin lines)
# In short: as §1
# EGFR (ErbB1) = molecular target: T12, EGFR (ErbB1) (Homo sapiens, UniProt P00533)
# T12 construct: purchased Thermo Fisher Scientific SelectScreen (plus Nanosyn / Reaction Biology for CDK/cyclin lines)
# In short: as §1
# EGFR (ErbB1) G719C = molecular target: T13, EGFR (ErbB1) G719C (Homo sapiens, UniProt P00533, G719C)
# T13 construct: purchased Thermo Fisher Scientific SelectScreen (plus Nanosyn / Reaction Biology for CDK/cyclin lines)
# In short: as §1
# EGFR (ErbB1) L858R = molecular target: T14, EGFR (ErbB1) L858R (Homo sapiens, UniProt P00533, L858R)
# T14 construct: purchased Thermo Fisher Scientific SelectScreen (plus Nanosyn / Reaction Biology for CDK/cyclin lines)
# In short: as §1
# [1] = molecular target: T15, EGFR (ErbB1) T790M C797S L858R (Homo sapiens, UniProt P00533, C797S/L858R/T790M)
# T15 construct: purchased Thermo Fisher Scientific SelectScreen (plus Nanosyn / Reaction Biology for CDK/cyclin lines)
# In short: as §1
# EGFR (ErbB1) T790M L858R = molecular target: T16, EGFR (ErbB1) T790M L858R (Homo sapiens, UniProt P00533, L858R/T790M)
# T16 construct: purchased Thermo Fisher Scientific SelectScreen (plus Nanosyn / Reaction Biology for CDK/cyclin lines)
# In short: as §1
# EPHA4 = molecular target: T17, EPHA4 (Homo sapiens, UniProt P54764)
# T17 construct: purchased Thermo Fisher Scientific SelectScreen (plus Nanosyn / Reaction Biology for CDK/cyclin lines)
# In short: as §1
# EPHB4 = molecular target: T18, EPHB4 (Homo sapiens, UniProt P54760)
# T18 construct: purchased Thermo Fisher Scientific SelectScreen (plus Nanosyn / Reaction Biology for CDK/cyclin lines)
# In short: as §1
# FGFR4 = molecular target: T19, FGFR4 (Homo sapiens, UniProt P22455)
# T19 construct: purchased Thermo Fisher Scientific SelectScreen (plus Nanosyn / Reaction Biology for CDK/cyclin lines)
# In short: as §1
# GRK4 = molecular target: T20, GRK4 (Homo sapiens, UniProt P32298)
# T20 construct: purchased Thermo Fisher Scientific SelectScreen (plus Nanosyn / Reaction Biology for CDK/cyclin lines)
# In short: as §1
# HCK = molecular target: T21, HCK (Homo sapiens, UniProt P08631)
# T21 construct: purchased Thermo Fisher Scientific SelectScreen (plus Nanosyn / Reaction Biology for CDK/cyclin lines)
# In short: as §1
# HIPK1 (Myak) = molecular target: T22, HIPK1 (Myak) (Homo sapiens, UniProt Q86Z02)
# T22 construct: purchased Thermo Fisher Scientific SelectScreen (plus Nanosyn / Reaction Biology for CDK/cyclin lines)
# In short: as §1
# HIPK2 = molecular target: T23, HIPK2 (Homo sapiens, UniProt Q9H2X6)
# T23 construct: purchased Thermo Fisher Scientific SelectScreen (plus Nanosyn / Reaction Biology for CDK/cyclin lines)
# In short: as §1
# IGF1R = molecular target: T24, IGF1R (Homo sapiens, UniProt P08069)
# T24 construct: purchased Thermo Fisher Scientific SelectScreen (plus Nanosyn / Reaction Biology for CDK/cyclin lines)
# In short: as §1
# IKBKB (IKK beta) = molecular target: T25, IKBKB (IKK beta) (Homo sapiens, UniProt O14920)
# T25 construct: purchased Thermo Fisher Scientific SelectScreen (plus Nanosyn / Reaction Biology for CDK/cyclin lines)
# In short: as §1
# JAK1 = molecular target: T26, JAK1 (Homo sapiens, UniProt P23458)
# T26 construct: purchased Thermo Fisher Scientific SelectScreen (plus Nanosyn / Reaction Biology for CDK/cyclin lines)
# In short: as §1
# KIT V559D = molecular target: T27, KIT V559D (Homo sapiens, UniProt P10721, V559D)
# T27 construct: purchased Thermo Fisher Scientific SelectScreen (plus Nanosyn / Reaction Biology for CDK/cyclin lines)
# In short: as §1
# MET (cMet) Y1235D = molecular target: T28, MET (cMet) Y1235D (Homo sapiens, UniProt P08581, Y1235D)
# T28 construct: purchased Thermo Fisher Scientific SelectScreen (plus Nanosyn / Reaction Biology for CDK/cyclin lines)
# In short: as §1
# PAK7 (KIAA1264) = molecular target: T29, PAK7 (KIAA1264) (Homo sapiens, UniProt Q9P286)
# T29 construct: purchased Thermo Fisher Scientific SelectScreen (plus Nanosyn / Reaction Biology for CDK/cyclin lines)
# In short: as §1
# PDGFRA (PDGFR alpha) = molecular target: T30, PDGFRA (PDGFR alpha) (Homo sapiens, UniProt P16234)
# T30 construct: purchased Thermo Fisher Scientific SelectScreen (plus Nanosyn / Reaction Biology for CDK/cyclin lines)
# In short: as §1
# RET Y791F = molecular target: T31, RET Y791F (Homo sapiens, UniProt P07949, Y791F)
# T31 construct: purchased Thermo Fisher Scientific SelectScreen (plus Nanosyn / Reaction Biology for CDK/cyclin lines)
# In short: as §1
# RPS6KA3 (RSK2) = molecular target: T32, RPS6KA3 (RSK2) (Homo sapiens, UniProt P51812)
# T32 construct: purchased Thermo Fisher Scientific SelectScreen (plus Nanosyn / Reaction Biology for CDK/cyclin lines)
# In short: as §1
# RPS6KB1 (p70S6K) = molecular target: T33, RPS6KB1 (p70S6K) (Homo sapiens, UniProt P23443)
# T33 construct: purchased Thermo Fisher Scientific SelectScreen (plus Nanosyn / Reaction Biology for CDK/cyclin lines)
# In short: as §1
# SNF1LK2 = molecular target: T34, SNF1LK2 (Homo sapiens, UniProt Q9H0K1)
# T34 construct: purchased Thermo Fisher Scientific SelectScreen (plus Nanosyn / Reaction Biology for CDK/cyclin lines)
# In short: as §1
# SRMS (Srm) = molecular target: T35, SRMS (Srm) (Homo sapiens, UniProt Q9H3Y6)
# T35 construct: purchased Thermo Fisher Scientific SelectScreen (plus Nanosyn / Reaction Biology for CDK/cyclin lines)
# In short: as §1
# SYK = molecular target: T36, SYK (Homo sapiens, UniProt P43405)
# T36 construct: purchased Thermo Fisher Scientific SelectScreen (plus Nanosyn / Reaction Biology for CDK/cyclin lines)
# In short: as §1
# T14 sequence (P00533 25-1210 L858R): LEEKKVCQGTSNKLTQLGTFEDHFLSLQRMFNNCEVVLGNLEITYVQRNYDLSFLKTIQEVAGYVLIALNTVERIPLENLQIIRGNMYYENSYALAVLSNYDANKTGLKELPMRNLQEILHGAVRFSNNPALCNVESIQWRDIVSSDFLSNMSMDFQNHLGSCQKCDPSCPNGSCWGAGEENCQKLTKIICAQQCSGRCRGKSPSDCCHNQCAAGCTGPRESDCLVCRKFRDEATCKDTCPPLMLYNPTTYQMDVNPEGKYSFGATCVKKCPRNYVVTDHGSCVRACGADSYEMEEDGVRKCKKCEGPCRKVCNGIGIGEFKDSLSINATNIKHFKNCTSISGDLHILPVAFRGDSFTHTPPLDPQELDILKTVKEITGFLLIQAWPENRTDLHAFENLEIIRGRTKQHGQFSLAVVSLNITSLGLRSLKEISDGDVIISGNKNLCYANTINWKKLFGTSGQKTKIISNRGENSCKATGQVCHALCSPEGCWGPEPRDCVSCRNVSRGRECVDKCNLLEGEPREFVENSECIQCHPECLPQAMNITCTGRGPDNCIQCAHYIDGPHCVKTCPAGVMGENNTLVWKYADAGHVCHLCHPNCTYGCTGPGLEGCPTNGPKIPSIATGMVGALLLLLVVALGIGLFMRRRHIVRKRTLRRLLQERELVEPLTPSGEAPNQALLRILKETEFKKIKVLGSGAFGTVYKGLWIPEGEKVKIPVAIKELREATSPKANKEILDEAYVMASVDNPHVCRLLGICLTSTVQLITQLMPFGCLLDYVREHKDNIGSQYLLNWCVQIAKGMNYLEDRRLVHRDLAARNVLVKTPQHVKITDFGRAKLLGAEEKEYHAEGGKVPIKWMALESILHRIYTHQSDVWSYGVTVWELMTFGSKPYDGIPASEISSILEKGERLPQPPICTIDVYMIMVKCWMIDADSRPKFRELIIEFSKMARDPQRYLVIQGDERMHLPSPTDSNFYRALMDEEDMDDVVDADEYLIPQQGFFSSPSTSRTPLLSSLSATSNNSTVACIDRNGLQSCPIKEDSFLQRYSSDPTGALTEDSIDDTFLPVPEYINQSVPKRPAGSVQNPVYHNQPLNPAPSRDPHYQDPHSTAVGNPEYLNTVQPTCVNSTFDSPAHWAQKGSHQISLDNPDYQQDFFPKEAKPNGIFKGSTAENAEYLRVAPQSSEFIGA
# T26 sequence (P23458 whole entry): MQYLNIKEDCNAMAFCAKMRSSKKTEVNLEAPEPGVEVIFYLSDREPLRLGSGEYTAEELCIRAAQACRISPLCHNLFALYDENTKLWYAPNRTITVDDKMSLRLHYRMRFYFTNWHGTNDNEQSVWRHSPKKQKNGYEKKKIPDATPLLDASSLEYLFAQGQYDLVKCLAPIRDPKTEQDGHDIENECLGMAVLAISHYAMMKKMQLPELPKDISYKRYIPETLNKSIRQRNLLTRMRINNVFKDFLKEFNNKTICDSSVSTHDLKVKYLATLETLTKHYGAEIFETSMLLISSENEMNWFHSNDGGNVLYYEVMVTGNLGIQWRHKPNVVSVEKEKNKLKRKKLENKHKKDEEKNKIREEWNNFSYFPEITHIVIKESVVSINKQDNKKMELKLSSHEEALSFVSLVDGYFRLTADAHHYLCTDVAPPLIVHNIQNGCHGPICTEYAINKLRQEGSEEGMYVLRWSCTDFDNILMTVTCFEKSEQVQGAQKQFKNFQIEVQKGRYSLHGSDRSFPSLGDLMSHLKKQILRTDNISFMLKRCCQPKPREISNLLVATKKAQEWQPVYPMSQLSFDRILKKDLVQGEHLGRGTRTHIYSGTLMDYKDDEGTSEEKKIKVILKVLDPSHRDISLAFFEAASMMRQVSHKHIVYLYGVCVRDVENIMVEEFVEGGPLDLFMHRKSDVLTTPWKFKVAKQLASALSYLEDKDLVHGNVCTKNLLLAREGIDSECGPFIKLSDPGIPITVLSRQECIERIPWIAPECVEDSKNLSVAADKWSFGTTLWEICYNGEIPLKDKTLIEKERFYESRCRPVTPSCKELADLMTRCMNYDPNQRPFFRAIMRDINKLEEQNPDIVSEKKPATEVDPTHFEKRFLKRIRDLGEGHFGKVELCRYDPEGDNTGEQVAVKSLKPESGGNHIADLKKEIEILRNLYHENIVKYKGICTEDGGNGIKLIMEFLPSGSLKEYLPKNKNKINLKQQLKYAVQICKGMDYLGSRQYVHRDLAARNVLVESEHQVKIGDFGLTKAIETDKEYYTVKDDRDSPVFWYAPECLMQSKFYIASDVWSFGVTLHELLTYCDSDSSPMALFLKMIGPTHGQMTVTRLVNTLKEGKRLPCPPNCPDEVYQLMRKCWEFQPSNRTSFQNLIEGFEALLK
# T9 sequence (Q9HCP0 whole entry): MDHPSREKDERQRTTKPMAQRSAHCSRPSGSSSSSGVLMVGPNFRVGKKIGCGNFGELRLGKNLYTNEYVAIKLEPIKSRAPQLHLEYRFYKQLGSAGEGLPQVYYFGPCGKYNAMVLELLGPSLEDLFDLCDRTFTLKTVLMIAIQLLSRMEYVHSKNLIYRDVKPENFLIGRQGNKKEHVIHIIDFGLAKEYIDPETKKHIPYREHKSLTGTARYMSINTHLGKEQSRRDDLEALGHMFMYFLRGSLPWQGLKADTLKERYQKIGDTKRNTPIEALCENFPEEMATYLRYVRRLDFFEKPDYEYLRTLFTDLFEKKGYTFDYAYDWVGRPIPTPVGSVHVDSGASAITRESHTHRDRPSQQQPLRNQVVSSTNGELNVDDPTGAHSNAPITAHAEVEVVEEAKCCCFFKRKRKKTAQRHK
# T31 sequence (P07949 29-1114 Y791F): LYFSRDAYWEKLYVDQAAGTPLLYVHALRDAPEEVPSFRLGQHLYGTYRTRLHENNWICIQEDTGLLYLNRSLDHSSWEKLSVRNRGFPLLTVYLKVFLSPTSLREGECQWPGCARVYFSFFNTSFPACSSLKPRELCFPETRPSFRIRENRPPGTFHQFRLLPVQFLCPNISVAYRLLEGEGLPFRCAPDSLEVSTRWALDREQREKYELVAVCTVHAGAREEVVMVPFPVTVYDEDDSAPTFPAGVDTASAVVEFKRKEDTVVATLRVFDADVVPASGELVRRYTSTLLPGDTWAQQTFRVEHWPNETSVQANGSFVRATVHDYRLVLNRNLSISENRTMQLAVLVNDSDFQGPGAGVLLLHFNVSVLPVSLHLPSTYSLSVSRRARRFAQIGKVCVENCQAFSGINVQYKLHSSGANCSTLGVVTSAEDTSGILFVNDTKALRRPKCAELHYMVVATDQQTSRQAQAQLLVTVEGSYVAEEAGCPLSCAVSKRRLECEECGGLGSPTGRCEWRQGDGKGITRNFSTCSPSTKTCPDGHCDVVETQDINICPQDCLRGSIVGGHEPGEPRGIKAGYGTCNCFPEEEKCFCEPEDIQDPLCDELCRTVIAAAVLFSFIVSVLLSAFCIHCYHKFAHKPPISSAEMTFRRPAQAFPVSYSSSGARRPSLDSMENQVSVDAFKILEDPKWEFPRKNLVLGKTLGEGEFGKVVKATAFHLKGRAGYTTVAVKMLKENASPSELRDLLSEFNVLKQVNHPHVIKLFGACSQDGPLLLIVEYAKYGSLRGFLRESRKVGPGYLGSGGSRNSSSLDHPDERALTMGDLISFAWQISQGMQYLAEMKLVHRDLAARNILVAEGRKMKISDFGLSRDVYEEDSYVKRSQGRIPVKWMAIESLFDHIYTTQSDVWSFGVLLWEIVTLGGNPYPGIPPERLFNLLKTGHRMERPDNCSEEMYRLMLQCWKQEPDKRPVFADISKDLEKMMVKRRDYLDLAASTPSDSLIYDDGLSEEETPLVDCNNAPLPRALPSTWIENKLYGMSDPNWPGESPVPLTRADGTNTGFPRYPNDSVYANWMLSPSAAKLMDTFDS
# T2 sequence (P36896 24-505): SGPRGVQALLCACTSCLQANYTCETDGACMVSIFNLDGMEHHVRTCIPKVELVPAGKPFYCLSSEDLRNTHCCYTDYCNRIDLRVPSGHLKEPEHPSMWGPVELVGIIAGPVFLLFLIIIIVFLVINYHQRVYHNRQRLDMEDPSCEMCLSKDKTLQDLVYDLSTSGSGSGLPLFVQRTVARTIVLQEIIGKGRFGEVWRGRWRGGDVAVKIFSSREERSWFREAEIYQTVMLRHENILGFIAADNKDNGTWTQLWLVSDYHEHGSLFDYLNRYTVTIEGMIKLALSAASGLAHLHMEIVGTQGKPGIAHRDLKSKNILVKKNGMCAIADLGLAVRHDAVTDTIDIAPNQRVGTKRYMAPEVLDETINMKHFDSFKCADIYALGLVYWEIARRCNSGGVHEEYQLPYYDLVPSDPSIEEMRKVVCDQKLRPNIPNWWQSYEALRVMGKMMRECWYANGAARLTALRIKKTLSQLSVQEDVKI
# T29 sequence (Q9P286 whole entry): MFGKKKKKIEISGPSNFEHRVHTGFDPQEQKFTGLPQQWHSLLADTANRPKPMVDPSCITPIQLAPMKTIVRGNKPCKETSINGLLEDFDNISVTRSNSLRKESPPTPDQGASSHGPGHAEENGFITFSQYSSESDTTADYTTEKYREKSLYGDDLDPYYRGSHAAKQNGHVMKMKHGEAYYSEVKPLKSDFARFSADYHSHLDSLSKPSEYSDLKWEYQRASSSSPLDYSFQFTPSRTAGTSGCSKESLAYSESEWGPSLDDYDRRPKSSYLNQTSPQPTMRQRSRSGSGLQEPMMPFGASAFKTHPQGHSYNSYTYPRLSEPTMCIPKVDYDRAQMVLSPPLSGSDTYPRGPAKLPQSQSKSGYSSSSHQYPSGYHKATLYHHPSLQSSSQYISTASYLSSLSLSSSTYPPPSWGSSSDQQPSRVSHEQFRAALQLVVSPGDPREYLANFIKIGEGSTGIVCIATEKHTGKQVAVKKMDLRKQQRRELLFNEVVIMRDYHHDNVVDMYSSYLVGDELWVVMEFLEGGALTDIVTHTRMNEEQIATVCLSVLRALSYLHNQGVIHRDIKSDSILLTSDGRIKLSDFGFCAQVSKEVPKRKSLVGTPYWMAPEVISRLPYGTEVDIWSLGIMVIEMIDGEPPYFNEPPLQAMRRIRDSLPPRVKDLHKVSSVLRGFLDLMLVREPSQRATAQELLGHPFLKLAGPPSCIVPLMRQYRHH
structure (smiles),measurement,setting,value
NS(=O)(=O)c1ccc(Nc2ncc3cc4n(c3n2)C2(CCCCC2)C(=O)NN4)cc1 [INX-315],inhibition at 0.1 µM,ABL1 G250E,7%
same,inhibition at 0.1 µM,ACVR1B (ALK4),-2%
same,inhibition at 0.1 µM,AKT1 (PKB alpha),6%
same,inhibition at 0.1 µM,ALK,16%
same,inhibition at 0.1 µM,AMPK (A1/B2/G2),55%
same,inhibition at 0.1 µM,AURKB (Aurora B),53%
same,inhibition at 0.1 µM,CAMK2A (CaMKII alpha),-4%
same,inhibition at 0.1 µM,CSNK1D (CK1 delta),0%
same,inhibition at 0.1 µM,CSNK1G1 (CK1 gamma 1),1%
same,inhibition at 0.1 µM,DCAMKL2 (DCK2),-1%
same,inhibition at 0.1 µM,DYRK3,8%
same,inhibition at 0.1 µM,EGFR (ErbB1),4%
same,inhibition at 0.1 µM,EGFR (ErbB1) G719C,0%
same,inhibition at 0.1 µM,EGFR (ErbB1) L858R,1%
same,inhibition at 0.1 µM,[1],3%
same,inhibition at 0.1 µM,EGFR (ErbB1) T790M L858R,0%
same,inhibition at 0.1 µM,EPHA4,5%
same,inhibition at 0.1 µM,EPHB4,6%
same,inhibition at 0.1 µM,FGFR4,2%
same,inhibition at 0.1 µM,GRK4,31%
same,inhibition at 0.1 µM,HCK,10%
same,inhibition at 0.1 µM,HIPK1 (Myak),6%
same,inhibition at 0.1 µM,HIPK2,5%
same,inhibition at 0.1 µM,IGF1R,9%
same,inhibition at 0.1 µM,IKBKB (IKK beta),4%
same,inhibition at 0.1 µM,JAK1,78%
same,inhibition at 0.1 µM,KIT V559D,21%
same,inhibition at 0.1 µM,MET (cMet) Y1235D,-2%
same,inhibition at 0.1 µM,PAK7 (KIAA1264),1%
same,inhibition at 0.1 µM,PDGFRA (PDGFR alpha),21%
same,inhibition at 0.1 µM,RET Y791F,50%
same,inhibition at 0.1 µM,RPS6KA3 (RSK2),27%
same,inhibition at 0.1 µM,RPS6KB1 (p70S6K),1%
same,inhibition at 0.1 µM,SNF1LK2,18%
same,inhibition at 0.1 µM,SRMS (Srm),17%
same,inhibition at 0.1 µM,SYK,8%
